Test results reported in patent US11434222B2, “MAGL inhibitors” (H. LUNDBECK A/S, priority 2020, dated 2022).
Read-outs that look alike come from different tables or passages of the source.

Assays:
[1] = Kinetic solubility in PBS; format: physicochemical; conditions: aqueous buffer, kinetic from dmso stock
Procedure: The kinetic solubility of test articles was determined in PBS at pH 2.0 and pH 7.4 in duplicate. A stock solution of test compound in DMSO (10 mM) was incubated at RT for 2 hours with shaking at 1,100 RPM. The sample was then filtered using a vacuum manifold, diluted, and analyzed by LC-MS/MS. Chromatographic conditions: Phenomenex Synergi 4μ Hydro-PR 80A column (2.0×30 mm) coupled with pre-guard column; mobile phase=0.1% formic acid in acetonitrile and 0.1% formic acid in water; flowrate=0.65 mL/min; column temperature=40° C.; injection volume: 3 μL.
Mass conditions: Turbo spray ion source; ESI ionization model; MRM scan type; Collison gas=6 L/min; Curtain gas=30 L/min; Nebulize gas=50 L/min; Auxiliary gas=50 L/min; Temperature=500 degrees C.; Ion spray voltage=+5500 v (positive MRM).
The filtered solution was analyzed and quantified against a standard of known concentration in DMSO using UPLC coupled with mass spectral peak identification and quantitation. Solubility values of the test articles were calculated using Microsoft Excel as follows (DF is the dilution factor): […]

[2] = In vitro human hepatocyte stability; format: in vitro ADME; conditions: cryopreserved human hepatocytes (pooled donor), human hepatocytes 0.5×10^6 cells/mL, read-out: Scaled-up unbound CLint
Procedure: The metabolic stability of test articles (1 μM) in commercially sourced, pooled donor, cryopreserved human hepatocytes (0.5×10^6 cells/mL) was determined in duplicate. The CLint reactions (250 μL) were initiated by addition of test compound. Aliquots (25 μL) were taken at 0, 15, 30, 45, 60, 90, 120 and 240 minutes and then protein crashed with ice-cold acetonitrile containing internal standard then centrifuged (3220 g for 25 minutes). Supernatant was used for LC-MS/MS analysis. The in vitro half-life (in vitro t1/2) was determined from the slope value: in vitro t1/2=−0.693/k. Conversion of the in vitro t1/2 (in min) into the scale-up unbound intrinsic clearance (Scaled-up unbound CLint, in mL/min/kg) was done using the following equation (mean of duplicate determinations), with data shown in Table 5: Scaled-up unbound CLint=kV/N×scaling factor. V=incubation volume (0.25 mL); N=number of hepatocytes per well ([…]). Scaling factors for in vivo intrinsic clearance prediction are listed below: […]

MAGL [3] = molecular target: T1, MAGL (Mus musculus, UniProt O35678); assay: In vivo MAGL inhibition in mouse brain proteomes after oral gavage; conditions: 5 mg/kg oral gavage, 4 h after administration, read-out: MAGL % inh. 5 mg/kg (mouse)
T1 construct: brain proteomes were prepared and analyzed according to previously established methods; from tissue; host or cells: brain of wild-type C57Bl/6J mice
T1 sequence (O35678 1-303): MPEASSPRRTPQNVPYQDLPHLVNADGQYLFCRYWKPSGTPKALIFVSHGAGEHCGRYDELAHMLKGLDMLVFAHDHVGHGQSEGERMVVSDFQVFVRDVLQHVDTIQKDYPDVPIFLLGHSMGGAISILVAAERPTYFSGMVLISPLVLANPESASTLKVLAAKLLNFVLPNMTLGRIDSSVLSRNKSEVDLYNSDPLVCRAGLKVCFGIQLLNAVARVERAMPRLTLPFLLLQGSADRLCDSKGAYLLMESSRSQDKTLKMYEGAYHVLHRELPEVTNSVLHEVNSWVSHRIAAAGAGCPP
Procedure: Inhibitors were administered to wild-type C57B1/6J by oral gavage in a vehicle of polyethylene glycol. Each animal was sacrificed 4 h following administration and brain proteomes were prepared and analyzed according to previously established methods (See Niphakis, M. J., et al. (2011) ACS Chem. Neurosci. and Long, J. Z., et al. Nat. Chem. Biol. 5:37-44).

MAGL [4] = molecular target: T2, MAGL (Homo sapiens, UniProt Q99685); assay: In vitro competitive activity-based protein profiling (PC3 human cell membrane proteomes); format: biochemical
T2 construct: PC3 human cell membrane proteomes; endogenous in cells; host or cells: PC3 human cells (membrane proteome)
T2 sequence (Q99685 1-303): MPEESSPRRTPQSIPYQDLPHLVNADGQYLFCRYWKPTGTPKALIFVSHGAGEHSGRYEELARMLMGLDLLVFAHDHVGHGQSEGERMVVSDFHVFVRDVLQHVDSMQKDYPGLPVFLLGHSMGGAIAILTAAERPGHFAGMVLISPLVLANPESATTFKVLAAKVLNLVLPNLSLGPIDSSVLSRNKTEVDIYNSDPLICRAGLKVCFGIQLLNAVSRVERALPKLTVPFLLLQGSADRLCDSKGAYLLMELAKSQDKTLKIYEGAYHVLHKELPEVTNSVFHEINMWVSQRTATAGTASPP
Procedure: PC3 human cell membrane proteomes (50 µL, 2.0 mg/mL total protein concentration) were preincubated with varying concentrations of inhibitors at 37° C. After 30 min, the ABPP probe JW912-Bodipy (1.0 µL, 50 µM in DMSO) was added and the mixture was incubated for 30 min at room temperature. Reactions were quenched with SDS loading buffer (15 μL-4×) and run on SDS-PAGE. Following gel imaging, serine hydrolase activity was determined by measuring fluorescent intensity of gel bands corresponding to MAGL using ImageJ 1.43u software. Intensities were converted to percent enzyme activity by normalizing to DMSO controls. IC50 values were determined by fitting percent enzyme activities to a non-linear regression, 4-parameter, sigmoidal dose response function in Prism GraphPad.

[5] = PBS pH 7.4, RT, read-out: pH 7.4 Solubility (kinetic)

| inhibition at 5 mg/kg (MAGL [3]) | Compound | solubility kinetic at 2 h [1, 5] | CLint scaled at 1 μM [2] | also measured |
| --- | --- | --- | --- | --- |
| – | CS(=O)(=O)Nc1ccc(NC(=O)C2CC23CCN(C(=O)OC(C(F)(F)F)C(F)(F)F)CC3)cn1 (single isomer, unassigned) [Example 181, 1,1,1,3,3,3-hexafluoropropan-2-yl (R or S)-1-((6-(methylsulfonamido)pyridin-3-yl)carbamoyl)-6-azaspiro[2.5]octane-6-carboxylate] | 296 µM | 1.94 mL/min/kg | – |
| – | O=C(OC(C(F)(F)F)C(F)(F)F)N1CCC2(CC1)CC2C(=O)N1CCc2ncncc2C1 (single isomer, unassigned) [Example 60, 1,1,1,3,3,3-hexafluoropropan-2-yl (R or S)-1-(5,6,7,8-tetrahydropyrido[4,3-d]pyrimidine-6-carbonyl)-6-azaspiro[2.5]octane-6-carboxylate] | 259 µM | – | MAGL % inh. 1 µM (human PC3) (MAGL [4]): 100% |
| 0% | O=C(Nc1cccnn1)[C@@H]1CC12CCN(C(=O)OC(C(F)(F)F)C(F)(F)F)CC2 [Example 5, 1,1,1,3,3,3-Hexafluoropropan-2-yl (R)-1-(pyridazin-3-ylcarbamoyl)-6-azaspiro[2.5]octane-6-carboxylate] | – | – | – |
| 50% | Cc1ncc(NC(=O)C2CC23CCN(C(=O)OC(C(F)(F)F)C(F)(F)F)CC3)cn1 (single isomer, unassigned) [Example 103, 1,1,1,3,3,3-hexafluoropropan-2-yl (R or S)-1-((2-methylpyrimidin-5-yl)carbamoyl)-6-azaspiro[2.5]octane-6-carboxylate] | – | – | – |
| – | O=C(Nc1cnc(C(F)(F)F)nc1)C1CC12CCN(C(=O)OC(C(F)(F)F)C(F)(F)F)CC2 (single isomer, unassigned) [Example 99, 1,1,1,3,3,3-hexafluoropropan-2-yl (R or S)-1-((2-(trifluoromethyl)pyrimidin-5-yl)carbamoyl)-6-azaspiro[2.5]octane-6-carboxylate] | 28.5 µM | – | MAGL % inh. 1 µM (human PC3) (MAGL [4]): 100% |
| 0% | Cc1ccc(NC(=O)[C@H]2CC23CCN(C(=O)OC(C(F)(F)F)C(F)(F)F)CC3)nn1 (single isomer, unassigned) [Example 106] | – | – | – |
| – | O=C(NCc1ccccc1)[C@H]1CC12CCN(C(=O)OC(C(F)(F)F)C(F)(F)F)CC2 (single isomer, unassigned) [Example 150] | – | 88.8 mL/min/kg | – |
| – | O=C(NCc1cccc(C(F)(F)F)n1)C1CC12CCN(C(=O)OC(C(F)(F)F)C(F)(F)F)CC2 (single isomer, unassigned) [Example 76, 1,1,1,3,3,3-hexafluoropropan-2-yl (R or S)-1-(((6-(trifluoromethyl)pyridin-2-yl)methyl)carbamoyl)-6-azaspiro[2.5]octane-6-carboxylate] | 1.33 µM | – | MAGL % inh. 1 µM (human PC3) (MAGL [4]): 100% |
| 75% | O=C(Nc1ccnnc1)C1CC12CCN(C(=O)OC(C(F)(F)F)C(F)(F)F)CC2 (single isomer, unassigned) [Example 108, 1,1,1,3,3,3-hexafluoropropan-2-yl (R or S)-1-(pyridazin-4-ylcarbamoyl)-6-azaspiro[2.5]octane-6-carboxylate] | – | – | – |
| – | O=C(Nc1ccc(-n2cccn2)nc1)C1CC12CCN(C(=O)OC(C(F)(F)F)C(F)(F)F)CC2 (single isomer, unassigned) [Example 29, 1,1,1,3,3,3-hexafluoropropan-2-yl (R or S)-1-((6-(1H-pyrazol-1-yl)pyridin-3-yl)carbamoyl)-6-azaspiro[2.5]octane-6-carboxylate] | 8.63 µM | 32.7 mL/min/kg | – |
| – | O=C(Nc1ccc(C(F)(F)F)nc1)C1CC12CCN(C(=O)OC(C(F)(F)F)C(F)(F)F)CC2 (single isomer, unassigned) [Example 78, 1,1,1,3,3,3-hexafluoropropan-2-yl (R or S)-1-((6-(trifluoromethyl)pyridin-3-yl)carbamoyl)-6-azaspiro[2.5]octane-6-carboxylate] | 12.6 µM | – | MAGL % inh. 1 µM (human PC3) (MAGL [4]): 100%; solubility kinetic at 2 h ([1]; PBS pH 2.0, RT, read-out: pH 2 Solubility (kinetic)): 17 µM |
| 0% | COc1ccc(NC(=O)[C@@H]2CC23CCN(C(=O)OC(C(F)(F)F)C(F)(F)F)CC3)cn1 (single isomer, unassigned) [Example 36] | – | – | – |
| – | CC1(CNC(=O)C2CC23CCN(C(=O)OC(C(F)(F)F)C(F)(F)F)CC3)CCOCC1 (single isomer, unassigned) [Example 168, 1,1,1,3,3,3-hexafluoropropan-2-yl (R or S)-1-(((4-methyltetrahydro-2H-pyran-4-yl)methyl)carbamoyl)-6-azaspiro[2.5]octane-6-carboxylate] | – | 61.4 mL/min/kg | – |
| 25% | COc1ccc(NC(=O)[C@H]2CC23CCN(C(=O)OC(C(F)(F)F)C(F)(F)F)CC3)cn1 (single isomer, unassigned) [Example 37] | – | – | – |

| Compound | inhibition at 5 mg/kg (MAGL [3]) | solubility kinetic at 2 h [1, 5] | CLint scaled at 1 μM [2] | also measured |
| --- | --- | --- | --- | --- |
| Cc1ccc(NC(=O)C2CC23CCN(C(=O)OC(C(F)(F)F)C(F)(F)F)CC3)cn1 (single isomer, unassigned) [Example 81, 1,1,1,3,3,3-hexafluoropropan-2-yl (R or S)-1-((6-methylpyridin-3-yl)carbamoyl)-6-azaspiro[2.5]octane-6-carboxylate] | 25% | 130 µM | – | – |
| O=C(Nc1nccs1)C1CC12CCN(C(=O)OC(C(F)(F)F)C(F)(F)F)CC2 (single isomer, unassigned) [Example 138, 1,1,1,3,3,3-hexafluoropropan-2-yl (R or S)-1-(thiazol-2-ylcarbamoyl)-6-azaspiro[2.5]octane-6-carboxylate] | 75% | – | 40.5 mL/min/kg | – |
| Cn1nccc1NC(=O)C1CC12CCN(C(=O)OC(C(F)(F)F)C(F)(F)F)CC2 (single isomer, unassigned) [Example 135, 1,1,1,3,3,3-hexafluoropropan-2-yl (R or S)-1-((1-methyl-1H-pyrazol-5-yl)carbamoyl)-6-azaspiro[2.5]octane-6-carboxylate] | 100% | – | 16.8 mL/min/kg | – |
| CN(C(=O)C1CC12CCN(C(=O)OC(C(F)(F)F)C(F)(F)F)CC2)c1cccnc1 (single isomer, unassigned) [Example 43, 1,1,1,3,3,3-hexafluoropropan-2-yl (R or S)-1-(methyl(pyridin-3-yl)carbamoyl)-6-azaspiro[2.5]octane-6-carboxylate] | 100% | 233 µM | – | MAGL % inh. 1 µM (human PC3) (MAGL [4]): 100% |
